Reference: patent US8791132B2, “Compounds and methods for treatment of hypertension” (Medivation Technologies, Inc., priority 2011, dated 2014)

Tests used:
[1] = molecular target: T1, rat adrenergic α1B receptor (Rattus norvegicus, UniProt P15823); assay: Radioligand binding, adrenergic α1B ([3H]Prazosin); conditions: 0.1 μM compound; read-out: Percentage inhibition of ligand binding, Adrenergic α1B
T1 construct: rat adrenergic α1B receptor obtained from Wistar Rat liver; from tissue; host or cells: Wistar rat liver
T1 sequence (P15823 1-515): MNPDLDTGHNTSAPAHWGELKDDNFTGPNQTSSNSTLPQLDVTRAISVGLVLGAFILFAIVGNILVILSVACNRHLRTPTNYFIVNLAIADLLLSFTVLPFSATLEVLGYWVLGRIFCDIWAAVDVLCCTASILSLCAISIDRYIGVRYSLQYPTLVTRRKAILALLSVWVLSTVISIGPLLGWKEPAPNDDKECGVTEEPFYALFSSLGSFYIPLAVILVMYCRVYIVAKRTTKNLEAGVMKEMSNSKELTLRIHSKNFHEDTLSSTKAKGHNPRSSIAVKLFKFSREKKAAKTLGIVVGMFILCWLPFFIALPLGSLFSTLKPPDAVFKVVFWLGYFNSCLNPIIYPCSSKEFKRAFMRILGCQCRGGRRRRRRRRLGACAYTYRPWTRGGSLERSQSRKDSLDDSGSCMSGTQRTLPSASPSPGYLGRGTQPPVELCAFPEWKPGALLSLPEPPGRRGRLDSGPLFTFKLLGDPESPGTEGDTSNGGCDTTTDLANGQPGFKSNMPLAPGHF
Outline: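 Rat α1B receptor from Wistar rat liver was incubated with 0.25 nM [3H]prazosin for 60 min at 25 °C in 50 mM Tris-HCl, pH 7.4, 0.5 mM EDTA. Non-specific binding was defined with 10 μM phentolamine. Bound radioligand was measured by filtration and counting, reported as percent inhibition of specific binding.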

[2] = molecular target: T2, human recombinant adrenergic α1D receptor (Homo sapiens, UniProt P25100); assay: Radioligand binding, adrenergic α1D ([3H]Prazosin); conditions: 0.1 μM compound; read-out: Percentage inhibition of ligand binding, Adrenergic α1D
T2 construct: expressed in transfected cells; host or cells: HEK-293
T2 sequence (P25100 1-572): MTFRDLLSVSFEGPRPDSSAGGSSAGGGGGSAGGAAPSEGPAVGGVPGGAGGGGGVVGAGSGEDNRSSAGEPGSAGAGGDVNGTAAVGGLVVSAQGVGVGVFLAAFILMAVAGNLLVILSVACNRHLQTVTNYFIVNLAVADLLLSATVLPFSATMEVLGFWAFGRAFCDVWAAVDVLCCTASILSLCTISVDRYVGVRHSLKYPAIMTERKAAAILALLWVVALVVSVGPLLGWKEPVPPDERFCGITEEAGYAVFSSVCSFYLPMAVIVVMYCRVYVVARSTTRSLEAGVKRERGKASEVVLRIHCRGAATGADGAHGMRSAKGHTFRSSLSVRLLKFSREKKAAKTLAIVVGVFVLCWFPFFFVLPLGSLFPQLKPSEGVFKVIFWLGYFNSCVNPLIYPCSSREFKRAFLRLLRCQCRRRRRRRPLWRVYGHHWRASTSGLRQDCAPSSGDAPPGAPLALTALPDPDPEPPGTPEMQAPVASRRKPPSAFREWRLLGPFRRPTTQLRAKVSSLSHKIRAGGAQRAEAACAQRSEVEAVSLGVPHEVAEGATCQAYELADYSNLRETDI
Protocol: Compounds were incubated with 0.6 nM [3H]Prazosin for 60 min at 25° C. Non-specific binding was estimated in the presence of 10 μM phentolamine. Receptor proteins were filtered and washed, the filters were then counted to determine [3H]Prazosin specifically bound. […] Biochemical assay results are presented as the percent inhibition of specific binding in Table B1.

[3] = molecular target: T3, human recombinant adrenergic α2A receptor (Homo sapiens, UniProt P08913); assay: Radioligand binding, adrenergic α2A ([3H]MK-912)
T3 construct: expressed in transfected cells; host or cells: insect Sf9 cells
T3 sequence (P08913 1-465): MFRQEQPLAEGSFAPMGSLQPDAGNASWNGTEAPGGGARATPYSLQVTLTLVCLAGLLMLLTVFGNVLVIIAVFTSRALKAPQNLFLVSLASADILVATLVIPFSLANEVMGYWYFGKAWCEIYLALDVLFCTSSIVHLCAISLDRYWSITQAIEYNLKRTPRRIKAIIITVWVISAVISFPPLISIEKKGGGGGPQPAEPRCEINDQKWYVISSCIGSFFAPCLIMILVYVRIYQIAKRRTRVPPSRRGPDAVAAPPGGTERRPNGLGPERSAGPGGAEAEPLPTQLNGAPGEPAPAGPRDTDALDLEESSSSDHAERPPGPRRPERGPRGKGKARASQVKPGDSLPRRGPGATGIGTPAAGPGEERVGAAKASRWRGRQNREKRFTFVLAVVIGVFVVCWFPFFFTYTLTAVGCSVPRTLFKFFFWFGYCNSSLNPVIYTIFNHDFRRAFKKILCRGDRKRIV
Outline: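 Receptor expressed in Sf9 cells, in 50 mM Tris-HCl pH 7.4, 12.5 mM MgCl2, 2 mM EDTA; compounds incubated with 1 nM [3H]MK-912 for 60 min at 25 °C.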

[4] = molecular target: T4, human recombinant adrenergic α2B receptor (Homo sapiens, UniProt P18089); assay: Radioligand binding, adrenergic α2B ([3H]Rauwolscine); conditions: for inhibition at 0.1 µM: 0.1 μM compound, read-out: Percentage inhibition of ligand binding, Adrenergic α2B
T4 construct: expressed in transfected cells; host or cells: CHO-K1
T4 sequence (P18089 1-450): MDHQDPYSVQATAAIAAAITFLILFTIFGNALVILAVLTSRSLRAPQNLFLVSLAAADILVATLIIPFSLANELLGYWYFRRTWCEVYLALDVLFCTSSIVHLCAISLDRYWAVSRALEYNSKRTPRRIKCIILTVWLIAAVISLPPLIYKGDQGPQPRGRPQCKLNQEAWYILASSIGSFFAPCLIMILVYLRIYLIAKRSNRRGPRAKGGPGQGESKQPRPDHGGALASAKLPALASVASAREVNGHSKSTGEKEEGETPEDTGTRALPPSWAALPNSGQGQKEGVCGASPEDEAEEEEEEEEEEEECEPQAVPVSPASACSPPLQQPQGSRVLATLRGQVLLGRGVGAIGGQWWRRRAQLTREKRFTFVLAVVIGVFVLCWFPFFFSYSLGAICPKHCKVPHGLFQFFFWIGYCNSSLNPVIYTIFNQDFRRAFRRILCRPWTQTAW
Outline: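 Readout: percent inhibition of specific [3H]Rauwolscine binding, measured by filtration and counting. Conditions: CHO-K1 cell-expressed receptor, 2.5 nM radioligand, 60 min, 25° C, Tris-HCl pH 7.4 buffer with MgCl2, EDTA, BSA. Non-specific binding: 10 μM Prazosin.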

[5] = 0.1 μM compound, read-out: Percentage inhibition of ligand binding, Adrenergic α2A

Row | Compound | inhibition at 0.1 µM [1] [%] | inhibition at 0.1 µM [2] [%] | inhibition at 0.1 µM [3, 5] [%] | inhibition at 0.1 µM [4] [%] | Ki [3] [µM] | inhibition at 0.03 µM ([3]; 0.03 μM compound, read-out: Percentage inhibition of ligand binding, Adrenergic α2A) [%] | Percentage inhibition of ligand binding, Adrenergic α2A ([3]; 0.1 μM compound, 0.1 µM) [%] | Ki ([4]; read-out: Ki α2B) [µM]
1 | Cc1ccc2c(c1)c1c(n2CCc2cccc3c2CCNC3)CCN(C)C1 [compound 317, 2,8-dimethyl-5-[2-(1,2,3,4-tetrahydro-isoquinolin-5-yl)-ethyl]-2,3,4,5-tetrahydro-1H-pyrido[4,3-b]indole] | 89 | 71 | 61 | 7 | – | – | – | –
2 | Cc1ccc2c(c1)c1c(n2CCc2cscc2C)CCN(C)C1 [compound 318, 2,8-dimethyl-5-[2-(4-methyl-thiophen-3-yl)-ethyl]-2,3,4,5-tetrahydro-1H-pyrido[4,3-b]indole] | 94 | 60 | 95 | 103 | – | – | – | –
3 | Cc1ccc(CCn2c3c(c4c(Cl)c(Cl)ccc42)CN(C)CC3)cn1 [compound 319] | 13 | 8 | 63 | 4 | – | – | – | –
4 | Cc1ccc2c(c1)c1c(n2CCc2cnc3ccccc3c2)CCN(C)C1 [compound 320] | 61 | 56 | 66 | 18 | – | – | – | –
5 | Cc1ccc2c(c1)c1c(n2C#Cc2cnc3ccccc3c2)CCN(C)C1 [compound 321, 2,8-dimethyl-5-quinolin-3-ylethynyl-2,3,4,5-tetrahydro-1H-pyrido[4,3-b]indole] | 94 | 66 | 59 | 90 | – | – | – | –
6 | Cc1ccc(CCn2c3c(c4cc(Cl)c(Cl)cc42)CN(C)CC3)cn1 [compound 322] | 59 | 22 | 58 | 49 | – | – | – | –
7 | Cc1ccc2c(c1)c1c(n2/C=C/c2cnc3ccccc3c2)CCN(C)C1 [compound 323] | 85 | 69 | 92 | 95 | – | – | – | –
8 | Cc1ccc2c(c1)c1c(n2CNc2ccccc2)CCN(C)C1 [compound 324, (2,8-dimethyl-1,2,3,4-tetrahydro-pyrido[4,3-b]indol-5-ylmethyl)-phenyl-amine] | 63 | 31 | 67 | 99 | – | – | – | –
9 | Cc1ccc(CCn2c3c(c4c(Cl)ccc(Cl)c42)CN(C)CC3)cn1 [compound 325] | -1 | 1 | 81 | -6 | 0.00988 | 53 | 84 | 0.206
